Assay results taken from ChEMBL document CHEMBL3352169, “Fragment-based hit discovery and structure-based optimization of aminotriazoloquinazolines as novel Hsp90 inhibitors” (Bioorg Med Chem, 2014).

Legend:
[1] = Permeability across apical to basolateral side in human Caco2 cells; format: ADME, cell-based; conditions: Caco-2
[2] = Intrinsic clearance in human liver microsomes; format: ADME; conditions: read-out: CLH
[3] = Intrinsic clearance in rat liver microsomes; format: ADME; conditions: read-out: CLH
[4] = Clearance in mouse at 5 mg/kg, iv; format: ADME, organism-based; design: dose 5 mg/kg, route intravenous; conditions: in vivo
[5] = Oral bioavailability in mouse at 5 mg/kg; format: ADME, organism-based; conditions: in vivo

- Papp A→B [1]: 65.4 ×10⁻⁶ cm/s
- CLint scaled [2]: 29.2 mL/min/kg
- CLint scaled [3]: 600 mL/min/kg
- clearance [4]: 132 mL/min/kg
- bioavailability [5]: 1.5%
Structure (SMILES): OCCCNc1ccc2c(c1)nc(-c1ccc3c(c1)OCO3)n1ncnc21
